Reference: patent US20100267561A1, “HERBICIDAL PYRIDAZINONE DERIVATIVES” (priority 2007, published 2010)

Legend:
Assay in all cases: Test B pre-/postemergence plant response
Assay type in all cases: in vivo
[1] = test system: Italian ryegrass (Lolium multiflorum)
Procedure, shortened: (§1)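 Visual scoring from 0 (no effect) to 100 (complete control) against untreated controls was done 13 to 15 days after greenhouse treatment. Chemicals were formulated in a surfactant-containing non-phytotoxic solvent and applied to soil preemergence or to 1- to 4-leaf (2-18 cm) plants postemergence.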

[2] = test system: blackgrass (Alopecurus myosuroides)
Procedure, shortened: as §1

[3] = test system: catchweed bedstraw (Galium aparine); settings: Preemergence
Procedure, shortened: as §1

[4] = test system: downy bromegrass (Bromus tectorum)
Procedure, shortened: as §1

[5] = test system: eastern black (E.B.) nightshade (Solanum ptycanthum); settings: Preemergence
Procedure, shortened: as §1

[6] = test system: giant foxtail (Setaria faberii)
Procedure, shortened: as §1

[7] = test system: green foxtail (Setaria viridis)
Procedure, shortened: as §1

[8] = test system: johnsongrass (Sorghum halepense)
Procedure, shortened: as §1

[9] = test system: morningglory (Ipomoea coccinea)
Procedure, shortened: as §1

[10] = test system: pigweed (Amaranthus retroflexus)
Procedure, shortened: as §1

[11] = test system: velvetleaf (Abutilon theophrasti)
Procedure, shortened: as §1

wild oat (Avena fatua) = test system: wild oat (Avena fatua)
Procedure, shortened: as §1

[12] = test system: woolly cupgrass (Eriochloa villosa)
Procedure, shortened: as §1

[13] = test system: yellow nutsedge (Cyperus esculentus)
Procedure, shortened: as §1

[14] = 8 g ai/ha, postemergence, 0-100 scale
[15] = 16 g ai/ha, postemergence, 0-100 scale
[16] = Postemergence, 31 g ai/ha, scale 0 to 100
[17] = Postemergence, 62 g ai/ha, scale 0 to 100, 0 no effect, 100 complete control
[18] = Preemergence, 31 g ai/ha, scale 0 to 100 (0 no effect, 100 complete control)
[19] = Preemergence, 62 g ai/ha, 0 to 100 scale, 0 no effect, 100 complete control
[20] = Preemergence, 8 g ai/ha, scale 0 to 100
[21] = Preemergence, 16 g ai/ha, scale 0 to 100
[22] = Postemergence, 16 g ai/ha, scale 0 to 100
[23] = 31 g ai/ha, scale 0 to 100 (0 no effect, 100 complete control)
[24] = 62 g ai/ha, 0 to 100 scale, 0 no effect, 100 complete control
[25] = Preemergence, 62 g ai/ha, scale 0 to 100
[26] = Preemergence, 16 g ai/ha, scale 0 to 100 (0 no effect, 100 complete control)
[27] = Preemergence, 31 g ai/ha, 0 to 100 scale, 0 no effect, 100 complete control

CCCc1cc(-c2ccc(Cl)cc2)nn1-c1c(O)cnn(C)c1=O [Compound 76]
Ryegrass, Italian plant response rating [1, 14]: 65 | Ryegrass, Italian plant response rating [1, 15]: 98 | Plant response rating, Ryegrass, Italian [1, 16]: 100 | Plant response rating, Ryegrass, Italian [1, 17]: 100 | Plant response rating, Ryegrass, Italian [1, 18]: 95 | Plant response rating, Ryegrass, Italian [1, 19]: 95 | Ryegrass, Italian plant response rating [1, 20]: 75 | Ryegrass, Italian plant response rating [1, 21]: 75 | Blackgrass plant response rating [2, 14]: 70 | Plant response rating, Blackgrass [2, 22]: 85 | Plant response rating, Blackgrass [2, 16]: 100 | Plant response rating, Blackgrass [2, 17]: 100 | Plant response rating, Blackgrass [2, 18]: 80 | Plant response rating, Blackgrass [2, 19]: 90 | Blackgrass plant response rating [2, 20]: 40 | Blackgrass plant response rating [2, 21]: 40 | Plant response rating, Galium [3, 23]: 0 | Plant response rating, Galium [3, 24]: 0 | Galium plant response rating ([3]; 8 g ai/ha, scale 0 to 100): 0 | Galium plant response rating ([3]; 16 g ai/ha, scale 0 to 100): 0 | Bromegrass, Downy plant response rating [4, 14]: 0 | Plant response rating, Bromegrass, Downy [4, 22]: 0 | Plant response rating, Bromegrass, Downy [4, 16]: 0 | Plant response rating, Bromegrass, Downy [4, 17]: 20 | Plant response rating, Bromegrass, Downy [4, 18]: 0 | Plant response rating, Bromegrass, Downy [4, 19]: 0 | Bromegrass, Downy plant response rating [4, 20]: 0 | Bromegrass, Downy plant response rating [4, 21]: 0 | Plant response rating, Nightshade, E. B. [5, 23]: 0 | Plant response rating, Nightshade, E. B. [5, 24]: 0 | Nightshade, E. B. plant response rating ([5]; 8 g ai/ha, scale 0 to 100): 0 | Nightshade, E. B. plant response rating ([5]; 16 g ai/ha, scale 0 to 100): 0 | Foxtail, Giant plant response rating [6, 14]: 75 | Plant response rating, Foxtail, Giant [6, 22]: 85 | Plant response rating, Foxtail, Giant [6, 16]: 95 | Plant response rating, Foxtail, Giant [6, 17]: 98 | Plant response rating, Foxtail, Giant [6, 18]: 90 | Plant response rating, Foxtail, Giant [6, 19]: 100 | Foxtail, Giant plant response rating [6, 20]: 0 | Foxtail, Giant plant response rating [6, 21]: 70 | Foxtail, Green plant response rating [7, 14]: 65 | Plant response rating, Foxtail, Green [7, 22]: 85 | Plant response rating, Foxtail, Green [7, 16]: 95 | Plant response rating, Foxtail, Green [7, 17]: 100 | Plant response rating, Foxtail, Green [7, 18]: 90 | Plant response rating, Foxtail, Green [7, 19]: 90 | Foxtail, Green plant response rating [7, 20]: 40 | Foxtail, Green plant response rating [7, 21]: 65 | Johnsongrass plant response rating [8, 14]: 65 | Johnsongrass plant response rating [8, 15]: 75 | Plant response rating, Johnsongrass [8, 16]: 95 | Plant response rating, Johnsongrass [8, 17]: 98 | Plant response rating, Johnsongrass [8, 18]: 70 | Plant response rating, Johnsongrass [8, 19]: 85 | Johnsongrass plant response rating [8, 20]: 0 | Johnsongrass plant response rating [8, 21]: 0 | Morningglory plant response rating [9, 14]: 0 | Morningglory plant response rating [9, 15]: 0 | Plant response rating, Morningglory [9, 16]: 0 | Plant response rating, Morningglory [9, 17]: 0 | Plant response rating, Morningglory [9, 18]: 0 | Plant response rating, Morningglory [9, 19]: 0 | Morningglory plant response rating [9, 20]: 0 | Morningglory plant response rating [9, 21]: 0 | Pigweed plant response rating [10, 14]: 0 | Pigweed plant response rating [10, 15]: 0 | Plant response rating, Pigweed [10, 16]: 0 | Plant response rating, Pigweed [10, 17]: 0 | Plant response rating, Pigweed [10, 18]: 0 | Plant response rating, Pigweed [10, 19]: 0 | Pigweed plant response rating [10, 20]: 0 | Pigweed plant response rating [10, 21]: 0 | Velvetleaf plant response rating [11, 14]: 0 | Velvetleaf plant response rating [11, 15]: 0 | Plant response rating, Velvetleaf [11, 16]: 0 | Plant response rating, Velvetleaf [11, 17]: 0 | Plant response rating, Velvetleaf [11, 18]: 0 | Plant response rating, Velvetleaf [11, 19]: 0 | Velvetleaf plant response rating [11, 20]: 0 | Velvetleaf plant response rating [11, 21]: 0 | Oat, Wild plant response rating (wild oat (Avena fatua); [14]): 80 | Oat, Wild plant response rating (wild oat (Avena fatua); [15]): 95 | Plant response rating, Oat, Wild (wild oat (Avena fatua); [16]): 100 | Plant response rating, Oat, Wild (wild oat (Avena fatua); [17]): 100 | Plant response rating, Oat, Wild (wild oat (Avena fatua); [18]): 5 | Plant response rating, Oat, Wild (wild oat (Avena fatua); [19]): 80 | Oat, Wild plant response rating (wild oat (Avena fatua); [20]): 0 | Oat, Wild plant response rating (wild oat (Avena fatua); [21]): 0 | Cupgrass, Woolly plant response rating [12, 14]: 60 | Plant response rating, Cupgrass, Woolly [12, 22]: 65 | Plant response rating, Cupgrass, Woolly [12, 16]: 85 | Plant response rating, Cupgrass, Woolly [12, 17]: 90 | Plant response rating, Cupgrass, Woolly [12, 18]: 90 | Plant response rating, Cupgrass, Woolly [12, 19]: 98 | Cupgrass, Woolly plant response rating [12, 20]: 55 | Cupgrass, Woolly plant response rating [12, 21]: 75 | Nutsedge, Yellow plant response rating [13, 14]: 0 | Nutsedge, Yellow plant response rating [13, 15]: 0 | Plant response rating, Nutsedge, Yellow [13, 16]: 0 | Plant response rating, Nutsedge, Yellow [13, 17]: 0 | Plant response rating, Nutsedge, Yellow [13, 18]: 100 | Plant response rating, Nutsedge, Yellow [13, 19]: 100 | Nutsedge, Yellow plant response rating [13, 20]: 100 | Nutsedge, Yellow plant response rating [13, 21]: 100

Cc1cc(-c2ccc(Cl)cc2)nn1-c1c(OS(=O)(=O)c2ccc(Cl)s2)cnn(C)c1=O [Compound 55]
Plant response rating, Ryegrass, Italian [1, 18]: 90 | Plant response rating, Ryegrass, Italian [1, 25]: 100 | Ryegrass, Italian plant response rating [1, 20]: 60 | Ryegrass, Italian plant response rating [1, 21]: 70 | Plant response rating, Blackgrass [2, 26]: 80 | Plant response rating, Blackgrass [2, 27]: 100 | Plant response rating, Blackgrass [2, 25]: 100 | Blackgrass plant response rating [2, 20]: 0 | Plant response rating, Galium ([3]; 31 g ai/ha, 0 to 100 scale, 0 no effect, 100 complete control): 0 | Plant response rating, Galium ([3]; 62 g ai/ha, scale 0 to 100): 0 | Galium plant response rating ([3]; 8 g ai/ha, scale 0 to 100): 0 | Plant response rating, Bromegrass, Downy [4, 26]: 0 | Plant response rating, Bromegrass, Downy [4, 27]: 30 | Plant response rating, Bromegrass, Downy [4, 25]: 60 | Bromegrass, Downy plant response rating [4, 20]: 0 | Plant response rating, Nightshade, E. B. [5, 23]: 80 | Plant response rating, Nightshade, E. B. ([5]; 62 g ai/ha, scale 0 to 100): 100 | Nightshade, E. B. plant response rating ([5]; 8 g ai/ha, scale 0 to 100): 0 | Nightshade, E. B. plant response rating ([5]; 16 g ai/ha, scale 0 to 100): 0 | Plant response rating, Foxtail, Giant [6, 27]: 100 | Plant response rating, Foxtail, Giant [6, 25]: 100 | Foxtail, Giant plant response rating [6, 20]: 90 | Foxtail, Giant plant response rating [6, 21]: 98 | Plant response rating, Foxtail, Green [7, 27]: 100 | Plant response rating, Foxtail, Green [7, 25]: 100 | Foxtail, Green plant response rating [7, 20]: 0 | Foxtail, Green plant response rating [7, 21]: 90 | Plant response rating, Johnsongrass [8, 27]: 70 | Plant response rating, Johnsongrass [8, 25]: 95 | Johnsongrass plant response rating [8, 20]: 0 | Johnsongrass plant response rating [8, 21]: 15 | Plant response rating, Morningglory [9, 18]: 0 | Plant response rating, Morningglory [9, 25]: 0 | Morningglory plant response rating [9, 20]: 0 | Morningglory plant response rating [9, 21]: 0 | Plant response rating, Pigweed [10, 18]: 0 | Plant response rating, Pigweed [10, 25]: 0 | Pigweed plant response rating [10, 20]: 0 | Pigweed plant response rating [10, 21]: 0 | Plant response rating, Velvetleaf [11, 18]: 0 | Plant response rating, Velvetleaf [11, 19]: 0 | Velvetleaf plant response rating [11, 20]: 0 | Velvetleaf plant response rating [11, 21]: 0 | Plant response rating, Oat, Wild (wild oat (Avena fatua); [18]): 35 | Plant response rating, Oat, Wild (wild oat (Avena fatua); [25]): 70 | Oat, Wild plant response rating (wild oat (Avena fatua); [20]): 0 | Oat, Wild plant response rating (wild oat (Avena fatua); [21]): 0 | Plant response rating, Cupgrass, Woolly [12, 27]: 100 | Plant response rating, Cupgrass, Woolly [12, 25]: 100 | Cupgrass, Woolly plant response rating [12, 20]: 15 | Cupgrass, Woolly plant response rating [12, 21]: 80 | Plant response rating, Nutsedge, Yellow [13, 18]: 0 | Plant response rating, Nutsedge, Yellow [13, 25]: 0 | Nutsedge, Yellow plant response rating [13, 20]: 0 | Nutsedge, Yellow plant response rating [13, 21]: 0
